Reference: patent publication US20100021434A1, “Isolated Oligodendrocyte-Like Cells and Populations Comprising Same for the Treatment of CNS Diseases” (Ramot At Tel Aviv University Ltd., priority 2005, published 2010)

Assays:
Format in all cases: cell-based
mouse MSCs [1] = experiment: Oligodendrocyte-like differentiation of mouse MSCs, immunostaining (A2B5, O4, MBP); settings: for Fraction of A2B5+ cells: mouse MSCs, cytokines added to growth medium; for expression of the oligodendrocyte progenitor marker A2B5 (FIGS. 4A-C): MSCs of C57-EGFP mice, NT-3 50 ng/ml, IL-1β 20 ng/ml
Description: (§1) Oligodendrocyte-like Differentiation of mouse MSCs: 3.2*10^3 mMSCs per well from transgenic EGFP+ C57/b1 mice (that have constitutive expression of EGFP in all their cells), were cultured in growth medium (15% FCS, 5% HS, 2 mM L-glutamine, 0.001% β-mercaptoethanol, 10 ng/ml epidermal growth factor, 100 U/ml Penicillin, 100 μg/ml Streptomycin and 12.5 U/ml Nystatin in α-DMEM), and then transferred to mediums containing different cytokines, hormones and growth factors (See table 2 hereinbelow) that play roles in oligodendrocyte lineage differentiation process, to examine the effects of those substances on the cells. The cells were incubated in the differentiation mediums for 48 hours or 6 days, and then were fixed in 4% PFA for 5 minutes in RT and 20 minutes in 4° C. and photographed for morphological changes.
The fixed cells were then blocked in 5% goat serum (GS) stained with mouse anti-A2B5 antibodies (1:200; Chemicon) overnight, 4° C., washed twice in 5% GS, and appropriate goat anti mouse second Cy3 antibody (1:500; Jackson labs) for one hour, RT, in the dark. The cells were then examined for fluorescence and photographed by fluorescence Olympus IX70-S8F2 microscope with fluorescent light source and a U-MNU filter cube (Olympus). In all immuno-staining experiments, a sample was also stained with IInd antibodies only, as control, to detect any non-specific staining.

mouse MSCs [2] = experiment: FACS analysis of differentiated mouse cells (A2B5, O4); settings: EGFP mMSCs, IL-1β 20 ng/ml in growth medium, 4 days
Description: FIGS. 5A-D are graphs and tables illustrating an analysis of mouse MSCs following differentiation protocol in vitro. MSCs from the bone marrow of transgenic EGFP-expressing transgenic mice (A) were cultured in differentiation medium composed of standard growth medium supplemented by IL-1β (20 ng/ml), or in standard growth medium only (control; B) for 4 days. The cells were then stained by antibodies against oligodendrocyte progenitor marker A2B5, and analyzed by flow cytometry (A2B5 staining seen as black lines). Nonspecific staining by second antibody only was used as control (nonspecific staining seen as red lines), and quantitative measurements were made from the cross points of the two lines. Quantitative measurements (D) were made either on the total population (first row), or on the population with very small-sized events omitted (see gated area in A; second row in D).
FACS analysis of differentiated mouse cells: MSCs were harvested from the tissue culture flasks following […] in differentiation medium (See Table 3, in the Results, #4), alongside undifferentiated MSCs, and centrifuged at 1000×rpm for 10 minutes at room temperature. […] After two washes in flow buffer, the cells were resuspended in 0.5 ml PBS and were studied by a fluorescence activated cell sorter (FACS) Calibur™ using an argon ion laser, adjusted to an excitation wavelength of 488 nm (Becton Dickinson). […]

mouse MSCs [3] = experiment: Oligodendrocyte-like differentiation of mouse MSCs, morphology; settings: MSCs of C57-EGFP transgenic mice, growth medium plus cytokines, 6 days
Description: as §1

Row | Molecule | Fraction of A2B5+ cells (mouse MSCs [1]; 48 hours) | expression of the oligodendrocyte progenitor marker A2B5 (FIGS. 4A-C) (mouse MSCs [1]; 6 days) | Fraction of A2B5+ cells (mouse MSCs [1]; 6 days) | percentage A2B5+ cells (FACS analysis) (mouse MSCs [2]) | cell morphology (FIGS. 3A-F) (mouse MSCs [3])
1 | CC1=C(/C=C/C(C)=C/C=C/C(C)=C/C(=O)O)C(C)(C)CCC1 [Retinoic acid, reference compound] | 0% |  |  |  | 
2 | Interleukin-1β: interleukin 1 beta, cytokine from PeproTech added to growth medium | 1% | acquiring expression | 3.8% | changes. Low | did not alter drastically
3 | Neurotrophin-3: neurotrophin 3, human polypeptide or mammalian homologue, from PeproTech (protein, UniProt P20783 139-257, looked up, Neurotrophin-3, neurotrophin 3, human polypeptide or mammalian homologue, from PeproTech) Neurotrophin-3: YAEHKSHRGEYSVCDSESLWVTDKSSAIDIRGHQVTVLGEIKTGNSPVKQYFYETRCKEARPVKNGCRGIDDKHWNSQCKTSQTYVRALTSENNKLVGWRWIRIDTSCVCALSRKIGRT | 1.9% | acquiring expression | 2.7% |  | did not alter drastically
